Measured values as given in patent US11045457B2, “Piperidinyl-3-(aryloxy)propanamides and propanoates” (priority 2018, dated 2021).

Molecular target: SSTR4 (Homo sapiens (Human), UniProt P31391)
Experiment: Inhibition of forskolin stimulated cAMP in CHO-K1 cells overexpressing SSTR4
Format: cell-based
Settings: for EC50: read-out: SSTR4 Activity pEC50 (converted)
Description: Inhibition of Forskolin Stimulated cAMP in Cells Overexpressing SSTR4
This cell-based assay measures the ability of compounds to inhibit forskolin stimulated cAMP in CHO-K1 cells overexpressing SSTR4. CHO-K1 cells overexpressing SSTR4 (CHO-SSTR4) are purchased from DiscoveRx (product code 95-0059C2). The CHO-SSTR4 cells are maintained in F12K media with 10% Fetal Bovine Serum (Hyclone), 1% Pen/Strep (Life Technologies), and 800 μg/mL G418 (Life Technologies). […] The next day, the culture media is removed from the cells and the cells are washed (added then removed) with Kreb's Ringer Buffer (ZenBio, KRB-1000 mL). […] The cells are incubated in […] for 30 minutes at room temperature. Cellular cAMP levels are detected with a HTRF LANCE Ultra cAMP kit (Perkin Elmer, catalog number TRF0264).
The assay is performed in accordance with the manufacturer's instructions. Five μL of diluted Eu-W8044 labeled streptavidin (dilution: 1:50 in cAMP Detection Buffer) is added to each well. Then 5 μL of diluted biotin cAMP (dilution: 1:150 in cAMP Detection Buffer) is added to each well. The plates are covered and allowed to incubate for 60 minutes at room temperature on a shaker. […] The pEC50 values are generated using Activity Base for Screening Data Management.

SSTR4, sequence (P31391 whole entry): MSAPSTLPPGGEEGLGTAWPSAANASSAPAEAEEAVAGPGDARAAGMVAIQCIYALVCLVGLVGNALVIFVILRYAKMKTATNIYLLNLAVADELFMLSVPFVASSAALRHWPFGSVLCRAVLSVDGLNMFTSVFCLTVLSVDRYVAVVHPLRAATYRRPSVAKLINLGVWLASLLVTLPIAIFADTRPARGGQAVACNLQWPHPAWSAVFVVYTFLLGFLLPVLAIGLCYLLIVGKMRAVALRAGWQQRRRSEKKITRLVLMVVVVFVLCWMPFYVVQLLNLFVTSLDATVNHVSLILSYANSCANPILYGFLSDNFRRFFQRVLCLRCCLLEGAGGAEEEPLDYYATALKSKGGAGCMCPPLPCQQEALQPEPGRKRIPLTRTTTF

Structure (SMILES)	SSTR4 Activity pEC50	EC50 [nM]
Cc1cccnc1OCC(C)(C)C(=O)N[C@H]1CN(C)CC12CC2 [Example 153, (R)-2,2-dimethyl-N-(5-methyl-5-azaspiro[2.4]heptan-7-yl)-3-((3-methylpyridin-2-yl)oxy)propanamide]	8.1	–
CN1CCC(NC(=O)C(C)(C)COc2ncccc2C(F)(F)F)C(Cl)C1 (stereo not drawn) [Example 120, N-(3-chloro-1-methylpiperidin-4-yl)-2,2-dimethyl-3-((3-(trifluoromethyl)pyridin-2-yl)oxy)propanamide]	5.9	–
Cc1cnc(OCC(C)(C)C(=O)N[C@H]2CN(C)CC23CC3)c(C)c1 [Example 154, (R)-3-((3,5-dimethylpyridin-2-yl)oxy)-2,2-dimethyl-N-(5-methyl-5-azaspiro[2.4]heptan-7-yl)propanamide]	7.4	–
C[C@@H]1CN(C)CC[C@H]1NC(=O)C(F)(F)COc1ncccc1C1CC1 (relative stereo) [Example 192, trans-3-((3-cyclopropylpyridin-2-yl)oxy)-N-(1,3-dimethylpiperidin-4-yl)-2,2-difluoropropanamide]	–	12.6
CN1CC(NC(=O)C(C)(C)COc2ncccc2C(F)(F)F)CC1(C)C (stereo not drawn) [Example 35, 2,2-dimethyl-3-((3-(trifluoromethyl)pyridin-2-yl)oxy)-N-(1,5,5-trimethylpyrrolidin-3-yl)propanamide]	6.5	–
CN1CCC(NC(=O)C(C)(C)COc2ncccc2C(F)(F)F)C(F)(F)C1 (stereo not drawn) [Example 118, N-(3,3-difluoro-1-methylpiperidin-4-yl)-2,2-dimethyl-3-((3-(trifluoromethyl)pyridin-2-yl)oxy)propanamide]	6.2	–
CCc1cccnc1OCC(C)(C)C(=O)NC1CCN(C)CC1 [Example 85, 3-((3-ethylpyridin-2-yl)oxy)-2,2-dimethyl-N-(1-methylpiperidin-4-yl)propanamide]	7.1	–
C[C@@H]1CN(C)CC[C@H]1NC(=O)C(F)(F)COc1ncccc1C(F)(F)F (relative stereo) [Example 189, trans-N-(1,3-dimethylpiperidin-4-yl)-2,2-difluoro-3-((3-(trifluoromethyl)pyridin-2-yl)oxy)propanamide]	6.8	–
Cc1cnc(OCC(C)(C)C(=O)NC2CCN(C)CC2)c(C2CC2)c1 [Example 6, 3-((3-cyclopropyl-5-methylpyridin-2-yl)oxy)-2,2-dimethyl-N-(1-methylpiperidin-4-yl)propanamide]	7.3	–
CN1CCC(NC(=O)C(C)(C)COc2cccnc2C(F)(F)F)CC1 [Example 52, 2,2-dimethyl-N-(1-methylpiperidin-4-yl)-3-((2-(trifluoromethyl)pyridin-3-yl)oxy)propanamide]	–	79.4
C[C@@H]1C[C@H](NC(=O)C(C)(C)COc2ncccc2C(F)(F)F)CN1C (relative stereo) [Example 134, cis-N-(1,5-dimethylpyrrolidin-3-yl)-2,2-dimethyl-3-((3-(trifluoromethyl)pyridin-2-yl)oxy)propanamide]	–	2000
CC(C)(COc1ncccc1C(F)(F)F)C(=O)NC1CNCC1(F)F (stereo not drawn) [Example 131, N-(4,4-difluoropyrrolidin-3-yl)-2,2-dimethyl-3-((3-(trifluoromethyl)pyridin-2-yl)oxy)propanamide]	6.1	–
Cc1cccnc1OCC(F)(F)C(=O)N[C@@H]1CCN(C)[C@H](C)C1 [Example 205, N-((2R,4R)-1,2-dimethylpiperidin-4-yl)-2,2-difluoro-3-((3-methylpyridin-2-yl)oxy)propanamide]	6.9	–
CN1CC[C@@H](NC(=O)C(C)(C)COc2ncccc2C(F)(F)F)[C@H](c2ccccc2)C1 (relative stereo) [Example 164, 2,2-dimethyl-N-(trans-1-methyl-3-phenylpiperidin-4-yl)-3-((3-(trifluoromethyl)pyridin-2-yl)oxy)propanamide]	6.6	–
C[C@@H]1CN(C)CC[C@H]1NC(=O)C(C)(C)COc1ncccc1C(F)(F)F (single isomer, unassigned) [Example 106]	6.0	–
Cc1cnc(OCC(C)(C)C(=O)N[C@@H]2CN(C)C[C@H]2c2ccc(Cl)cc2)c(C)c1 (relative stereo) [Example 93, trans-N-(4-(4-chlorophenyl)-1-methylpyrrolidin-3-yl)-3-((3,5-dimethylpyridin-2-yl)oxy)-2,2-dimethylpropanamide]	–	200
C[C@@H]1CN(C)CC[C@@H]1NC(=O)C(C)(C)COc1ncccc1C(F)(F)F (racemic) [Example 12, cis-N-(1,3-dimethylpiperidin-4-yl)-2,2-dimethyl-3-((3-(trifluoromethyl)pyridin-2-yl)oxy)propanamide]	–	126

Structure (SMILES)	SSTR4 Activity pEC50	EC50 [nM]
C[C@@H]1CN(C)CC[C@@H]1NC(=O)C(C)(C)COc1ncccc1OC(F)(F)F (racemic) [Example 14, cis-N-(1,3-dimethylpiperidin-4-yl)-2,2-dimethyl-3-((3-(trifluoromethoxy)pyridin-2-yl)oxy)propanamide]	–	79.4
CN1CCC(NC(=O)C(C)(C)COc2ccccc2F)CC1 [Example 195, 3-(2-fluorophenoxy)-2,2-dimethyl-N-(1-methylpiperidin-4-yl)propanamide]	6.5	–
CCc1nccnc1OCC(C)(C)C(=O)NC1CCN(C)CC1 [Example 87, 3-((3-ethylpyrazin-2-yl)oxy)-2,2-dimethyl-N-(1-methylpiperidin-4-yl)propanamide]	6.4	–
CN1CCC(NC(=O)C(C)(C)COc2ccccc2)CC1 [Example 74, 2,2-dimethyl-N-(1-methylpiperidin-4-yl)-3-phenoxypropanamide]	6.4	–
CN1CCC(NC(=O)C(C)(C)COc2ncncc2C2CC2)CC1 [Example 5, 3-((5-cyclopropylpyrimidin-4-yl)oxy)-2,2-dimethyl-N-(1-methylpiperidin-4-yl)propanamide]	6.8	–
Cc1cccnc1OCC(C)(C)C(=O)N[C@@H]1CN(C)C[C@H]1c1ccc(Cl)cc1 (relative stereo) [Example 55, trans-N-(4-(4-chlorophenyl)-1-methylpyrrolidin-3-yl)-2,2-dimethyl-3-((3-methylpyridin-2-yl)oxy)propanamide]	–	31.6
CN1CCC(NC(=O)C(C)(C)COc2cccc(F)c2)CC1 [Example 203, 3-(3-fluorophenoxy)-2,2-dimethyl-N-(1-methylpiperidin-4-yl)propanamide]	7.1	–
Cc1cnccc1OCC(C)(C)C(=O)NC1CCN(C)CC1 [Example 50, 2,2-dimethyl-N-(1-methylpiperidin-4-yl)-3-((3-methylpyridin-4-yl)oxy)propanamide]	6.2	–
CN1CC[C@@H](c2cnn(C)c2)[C@H](NC(=O)C(C)(C)COc2ncccc2C(F)(F)F)C1 (relative stereo) [Example 169, 2,2-dimethyl-N-(trans-1-methyl-4-(1-methyl-1H-pyrazol-4-yl)piperidin-3-yl)-3-((3-(trifluoromethyl)pyridin-2-yl)oxy)propanamide]	–	251
CN1CCC(NC(=O)C(C)(C)COc2nnc(Cl)cc2C(F)(F)F)CC1 [Example 98, 3-((6-chloro-4-(trifluoromethyl)pyridazin-3-yl)oxy)-2,2-dimethyl-N-(1-methylpiperidin-4-yl)propanamide]	6.2	–
CC(C)(COc1ncccc1C(F)(F)F)C(=O)O[C@@H]1CCNC[C@H]1c1ccccc1 (relative stereo) [Example 171, trans-3-phenylpiperidin-4-yl 2,2-dimethyl-3-((3-(trifluoromethyl)pyridin-2-yl)oxy)propanoate]	–	316
CCC1CC(NC(=O)C(C)(C)COc2ncccc2OC(F)(F)F)CCN1C (stereo not drawn) [Example 146, N-(2-ethyl-1-methylpiperidin-4-yl)-2,2-dimethyl-3-((3-(trifluoromethoxy)pyridin-2-yl)oxy)propanamide]	6.7	–
CN1CCC(NC(=O)C(C)(C)COc2ncccc2C(F)(F)F)CC1(C)C (stereo not drawn) [Example 132, 2,2-dimethyl-3-((3-(trifluoromethyl)pyridin-2-yl)oxy)-N-(1,2,2-trimethylpiperidin-4-yl)propanamide]	7.1	–
Cc1c(C#N)cccc1OCC(C)(C)C(=O)NC1CCN(C)CC1 [Example 75, 3-(3-cyano-2-methylphenoxy)-2,2-dimethyl-N-(1-methylpiperidin-4-yl)propanamide]	5.5	–
Cc1nc(Cl)ccc1OCC(C)(C)C(=O)NC1CCN(C)CC1 [Example 46, 3-((6-chloro-2-methylpyridin-3-yl)oxy)-2,2-dimethyl-N-(1-methylpiperidin-4-yl)propanamide]	5.4	–
CN1CCC(NC(=O)C(C)(C)COc2ncccc2C(F)(F)F)C(F)C1 (stereo not drawn) [Example 113, N-(3-fluoro-1-methylpiperidin-4-yl)-2,2-dimethyl-3-((3-(trifluoromethyl)pyridin-2-yl)oxy)propanamide]	5.9	–
